The target in assay [1] is T1, Cell surface CD73 of U87 MG human glioblastoma cells (Homo sapiens, UniProt P21589).
T1 construct: Cell surface CD73 catalyzes the conversion of adenosine monophosphate (AMP) to adenosine and inorganic phosphate; endogenous in cells; host or cells: U87 MG human glioblastoma cells
T1 sequence (P21589 27-549): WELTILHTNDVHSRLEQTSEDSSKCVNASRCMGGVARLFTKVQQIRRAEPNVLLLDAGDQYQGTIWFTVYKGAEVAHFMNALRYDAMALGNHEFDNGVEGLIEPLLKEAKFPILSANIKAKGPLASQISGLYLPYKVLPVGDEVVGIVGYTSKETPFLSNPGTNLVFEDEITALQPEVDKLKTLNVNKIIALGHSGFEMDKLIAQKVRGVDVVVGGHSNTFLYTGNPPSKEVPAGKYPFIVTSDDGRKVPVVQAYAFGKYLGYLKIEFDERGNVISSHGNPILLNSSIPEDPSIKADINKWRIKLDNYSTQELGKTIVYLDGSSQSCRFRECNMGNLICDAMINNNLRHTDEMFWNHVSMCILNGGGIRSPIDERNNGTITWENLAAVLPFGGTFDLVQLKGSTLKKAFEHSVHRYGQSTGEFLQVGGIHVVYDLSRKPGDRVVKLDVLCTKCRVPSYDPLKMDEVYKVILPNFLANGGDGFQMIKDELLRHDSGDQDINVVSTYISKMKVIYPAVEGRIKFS
The assay can be described thus: CD73 Cellular Assay. The class given is cell-based. The note with it: 5000 cells per well, 30 μM AMP, PiColorLock phosphate detection in supernatant, read-out: Potency (IC50). The protocol:
Cell surface CD73 catalyzes the conversion of adenosine monophosphate (AMP) to adenosine and inorganic phosphate. U87 MG human glioblastoma cells express high level of CD73. Cells are treated with compounds in a 96-well assay plate and supernatants are collected into a 384-well detection plate. The concentration of inorganic phosphate (Pi) in the supernatants is determined using the phosphate detection reagent, PiColorLock™ (Innova Bioscience, Cat #303-0125) following the manufacturer's instructions.
Briefly, on the day of the assay, U87 MG cells were harvested and resuspended in assay buffer which consisted of 20 mM HEPES, pH=7.4, 137 mM NaCl, 5.4 mM KCl, 1.3 mM CaCl2, 4.2 mM NaHCO3 and 0.1% glucose. To test the effect of compounds on cellular CD73 enzymatic activity, 500 nL/well of compounds dissolved in DMSO were added to a 96-well TC-treated microplate (Corning #3599). Next, 80 μL/well of U87 MG cells in assay buffer were added to assay plate. After 30 minutes of incubation in an atmosphere of 5% CO2 at 37° C., 20 μL/well of 150 μM AMP (Adenosine 5′-monophosphate monohydrate, Sigma, Cat #01930) in assay buffer was added to assay plate. Final assay conditions consisted of 5000 cells per well in 0.5% DMSO and 30 μM AMP substrate. After 50 minutes of incubation in an atmosphere of 5% CO2 at 37° C., 50 μL/well of supernatant was transferred to the 384-well detection plate (Corning® NBSTM 384 well plates, Cat #3640). Meanwhile “Gold mix” was prepared shortly before use by adding 1/100 volume of accelerator to the PiColorLock™ Gold reagent. 12 μL/well of the “Gold mix” was added to detection plate containing 50 μL/well of supernatant and incubated at 25° C. for 5 minutes. 5 μL/well stabilizer was added to the detection plate and incubated at 25° C. for 30 minutes. The absorbance at 635 nm was measured on a Spark 10M instrument (TECAN).
The percent (%) inhibition at each concentration of a compound was calculated relative to the OD value in the Max and Min control wells contained within each assay plate. The Max control wells contained cells and substrate as 0% inhibition, and the Min control wells only contained cells as 100% inhibition. The concentrations and percent inhibition values for a test compound are plotted and the concentration of the compound required to achieve 50% inhibition (IC50) was determined with a four-parameter logistic dose response equation.

For assay [2], the target named is T2, Recombinant Human 5′-Nucleotidase (CD73) (Homo sapiens, UniProt P21589).
T2 construct: CHO derived CD73 (Trp27-Lys547), with a C-terminal 6-His tag; 6-His (C); purchased R&D 5795-EN; host or cells: CHO
T2 sequence (P21589 27-547): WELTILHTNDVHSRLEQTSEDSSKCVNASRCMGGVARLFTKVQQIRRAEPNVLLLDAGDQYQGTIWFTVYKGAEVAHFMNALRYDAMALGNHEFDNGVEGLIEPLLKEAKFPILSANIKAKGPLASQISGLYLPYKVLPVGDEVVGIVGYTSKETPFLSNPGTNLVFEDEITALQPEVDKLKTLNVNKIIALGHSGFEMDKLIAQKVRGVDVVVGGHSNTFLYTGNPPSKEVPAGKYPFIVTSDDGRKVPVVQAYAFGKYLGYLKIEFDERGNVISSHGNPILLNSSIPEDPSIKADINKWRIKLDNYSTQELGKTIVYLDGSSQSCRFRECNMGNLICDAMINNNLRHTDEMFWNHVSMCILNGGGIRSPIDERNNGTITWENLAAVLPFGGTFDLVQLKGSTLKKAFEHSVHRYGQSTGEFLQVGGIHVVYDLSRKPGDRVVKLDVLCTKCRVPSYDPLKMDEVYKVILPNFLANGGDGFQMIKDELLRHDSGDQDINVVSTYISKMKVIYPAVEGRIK
The assay can be described thus: CD73 Enzyme Assay. The class given is biochemical. The following applies: 0.5 nM human CD73, 30 μM AMP, PiColorLock phosphate detection, OD 635 nm; read-out: Potency (IC50). The source says: Soluble recombinant CD73 catalyzes the conversion of adenosine monophosphate (AMP) to adenosine and inorganic phosphate. The phosphate detection reagent, PiColorLock™ (Innova Bioscience, Cat #303-0125) is based on the change in absorbance of the dye malachite green in the presence of inorganic phosphate (Pi) and this property can be exploited to measure any enzyme that generates Pi. Recombinant Human 5′-Nucleotidase (CD73) (R&D #5795-EN, CHO derived CD73 (Trp27-Lys547), with a C-terminal 6-His tag) was used in the enzymatic assay. This assay was run in a 384-well plate format (Corning® NBS™ 384 well plates, Cat #3640). The basic assay procedure involves two steps: 1) Enzyme reaction: The CD73 enzyme (R&D #5795-EN) is incubated in the presence or absence of compounds. AMP (sigma, cat #01930) is added to start the kinase reaction. 2) Detection step: “Gold mix” is added to the assay system, then stabilizers are added. After incubation the absorbance of the solution is read at OD 635 nm. The recorded OD signal is proportional to the enzyme activity.
Briefly, 25 μl human CD73 (0.5 nM final concentration) in the enzymatic buffer solutions (20 mM Tris, 25 mM NaCl, 1 mM MgCl2, pH 7.5, 0.005% Tween-20) were mixed with various concentrations of the test compound (dissolved in 100% DMSO). These solutions were incubated for 15 min at 25° C., and subsequently 25 μl AMP (30 μM final concentration) was added to start the reaction. The final reaction mixture of enzyme-substrate-compound was incubated for 20 min at 37° C. Meanwhile, “Gold mix” was prepared shortly before use by adding 1/100 vol. of accelerator to the PiColorLock™ Gold reagent. 12 μL/well of the “Gold mix” was added to assay plate containing 50 μL enzyme reaction buffer and incubated at 25° C. for 5 min. 5 μL/well stabilizer was added to the assay plate and incubated at 25° C. for 30 min. The absorbance of the well solutions was measured at 635 nm on a Spark 10M instrument (TECAN).
The percent (%) inhibition at each concentration of a compound was calculated relative to the OD value in the Max and Min control wells contained within each assay plate. The Max control wells contained enzyme and substrate as 0% inhibition, and the Min control wells only contained substrate without enzyme as 100% inhibition. The concentrations and percent inhibition values for a test compound are plotted and the concentration of the compound required to achieve 50% inhibition (IC50) was determined with a four-parameter logistic dose response equation.

pIC50: −log10 of the molar value.

As a reminder, the pIC50 is the negative decadic logarithm of the IC50, by convention in mol/L.

On to `CN(c1ncnc2cc([C@@H]3O[C@H](COP(=O)(O)CP(=O)(O)O)[C@@H](O)[C@H]3O)ccc12)C1CCCC1` [Compound 10, (((((2R,3S,4R,5S)-5-(4-(cyclopentyl(methyl)amino)quinazolin-7-yl)-3,4-dihydroxytetrahydrofuran-2-yl)methoxy)(hydroxy)phosphoryl)methyl)phosphonic acid], for which the negative logarithm of the IC50 (pIC50) in assay [1] is greater than 8.00; in assay [2], 7.00 to 8.00.
As to `O=P(O)(O)CP(=O)(O)OC[C@H]1O[C@@H](c2ccc3c(NCc4ccccc4)nc(Cl)nc3c2)[C@@H](F)[C@@H]1O` [Compound 13, (((((2R,3R,4S,5S)-5-(4-(benzylamino)-2-chloroquinazolin-7-yl)-4-fluoro-3-hydroxytetrahydrofuran-2-yl)methoxy)(hydroxy)phosphoryl)methyl)phosphonic acid], the results for the pIC50 in assay [1] and in assay [2] were 7.00 to 8.00 and 6.00 to 7.00, respectively.
In the same order, the values of `O=P(O)(O)CP(=O)(O)OC[C@H]1O[C@@H](c2ccc3c(NC4CCC4)nc(Cl)nc3c2)[C@H](O)[C@@H]1O` [Compound 7, (((((2R,3S,4R,5S)-5-(2-chloro-4-(cyclobutylamino)quinazolin-7-yl)-3,4-dihydroxytetrahydrofuran-2-yl)methoxy)(hydroxy)phosphoryl)methyl)phosphonic acid] are greater than 8.00 and 7.00 to 8.00.
Consider `CN(c1nc(Cl)nc2cc([C@@H]3O[C@H](COP(=O)(O)CP(=O)(O)O)[C@@H](O)[C@H]3O)ccc12)C1CCCC1` [Compound 3, (((((2R,3S,4R,5S)-5-(2-chloro-4-(cyclopentyl(methyl)amino)quinazolin-7-yl)-3,4-dihydroxytetrahydrofuran-2-yl)methoxy)(hydroxy)phosphoryl)methyl)phosphonic acid], for which the pIC50 is greater than 8.00 in assay [1] and 7.00 to 8.00 in assay [2].
In the same order, the values of `O=P(O)(O)CP(=O)(O)OC[C@H]1O[C@@H](c2ccc3c(NCc4ccccc4)ncnc3c2)[C@H](O)[C@@H]1O` [Compound 12, [({[(2R,3S,4R,5S)-5-[4-(benzylamino)quinazolin-7-yl]-3,4-dihydroxyoxolan-2-yl]methoxy}(hydroxy)phosphoryl)methyl]phosphonic acid] are greater than 8.00 and 7.00 to 8.00.
The corresponding values for `O=P(O)(O)CP(=O)(O)OC[C@H]1O[C@@H](c2ccc3c(NCc4ccccc4)nc(Cl)nc3c2)[C@H](O)[C@@H]1O` [Compound 1, (((((2R,3S,4R,5S)-5-(4-(benzylamino)-2-chloroquinazolin-7-yl)-3,4-dihydroxytetrahydrofuran-2-yl)methoxy)(hydroxy)phosphoryl)methyl)phosphonic acid] are greater than 8.00 and 7.00 to 8.00.
Regarding `O=P(O)(O)CP(=O)(O)OC[C@H]1O[C@@H](c2ccc3c(NC4CCOC4)nc(Cl)nc3c2)[C@H](O)[C@@H]1O` (stereo partly drawn) [Compound 22, (((((2R,3S,4R,5S)-5-(2-chloro-4-((tetrahydrofuran-3-yl)amino)quinazolin-7-yl)-3,4-dihydroxytetrahydrofuran-2-yl)methoxy)(hydroxy)phosphoryl)methyl)phosphonic acid], the pIC50 in assay [1] and in assay [2] was greater than 8.00 throughout.
Consider `C=Cc1nc(NCc2ccccc2)c2ccc([C@@H]3O[C@H](COP(=O)(O)CP(=O)(O)O)[C@@H](O)[C@H]3O)cc2n1` [Compound 18, [({[(2R,3S,4R,5S)-5-[4-(benzylamino)-2-ethenylquinazolin-7-yl]-3,4-dihydroxyoxolan-2-yl]methoxy}(hydroxy)phosphoryl)methyl]phosphonic acid], for which the pIC50 in assay [1] was greater than 8.00; in assay [2], 7.00 to 8.00.
With `O=P(O)(O)CP(=O)(O)OC[C@H]1O[C@@H](c2ccc3c(NCc4ccccc4Cl)nc(Cl)nc3c2)[C@H](O)[C@@H]1O` [Compound 23, (((((2R,3S,4R,5S)-5-(2-chloro-4((2-chlorobenzyl)amino)quinazolin-7-yl)-3,4-dihydroxytetrahydrofuran-2-yl)methoxy)(hydroxy)phosphoryl)methyl)phosphonic acid], the pIC50 in assay [1] and in assay [2] was greater than 8.00 each time.
As for `O=P(O)(O)CP(=O)(O)OC[C@H]1O[C@@H](c2ccc3c(NCC4CCCC(O)C4)nc(Cl)nc3c2)[C@H](O)[C@@H]1O` (stereo partly drawn) [Compound 28, (((((2R,3S,4R,5S)-5-(2-chloro-4-(((3-hydroxycyclohexyl)methyl)amino)quinazolin-7-yl)-3,4-dihydroxytetrahydrofuran-2-yl)methoxy)(hydroxy)phosphoryl)methyl)phosphonic acid], the pIC50 is 6.00 to 7.00 in assay [1] and greater than 8.00 in assay [2].

(Values after patent US20220185832A1, “CD73 INHIBITORS” (BioArdis LLC, priority 2019, published 2022).)
